Read-outs that look alike come from different tables or passages of the source.
What was measured:
[1] = Oral and IV pharmacokinetic studies; type: in vivo; conditions: BALB/c mice; for bioavailability: PO 10 mg/Kg vs IV 1 mg/Kg
Procedure: Oral and intravenous (IV) pharmacokinetic studies of compound 1g were carried out in BALB/c male mice (Jubilant Biosys Limited, Bangalore) of age 4-6 weeks, by administering 1g orally and IV at dose of 10 mg/kg for oral and 1 mg/kg for IV. Plasma samples were collected at appropriate time points between the range of 0 hours to 24 hours and analyzed by LC-MS-MS. Mean plasma concentration calculated and data were further analyzed for PK parameters using WinNonlin 5.3 software package.

[2] = tested on: Colo-205; assay: Antiproliferative activity, MTT assay, Colo-205; type: cell-based; conditions: Homo sapiens, 48 h
Procedure: Human colon cancer cell lines HCT-116 (NCI, passage no. 5) and Colo-205 116 (NCI, passage no. 3) were procured from National Cancer Institute, USA. HCT-116 and Colo-205 cells were grown in McCoy's 5A and RPMI growth medium respectively containing 10% FCS, 100 U penicillin and […] per mL medium. Cells were grown in CO2 incubator (Thermocon Electron Corporation, Houston, Tex.) at 37° C. with 95% humidity and 5% CO2 gas environment. Cells treated with tested materials were dissolved in DMSO while the untreated control cultures received only the vehicle (DMSO<0.2%). Cells were seeded in 96 well plates and exposed to tested compounds at various concentrations for 48 h time interval. MTT dye (2.5 mg/ml in PBS) was added 4 hrs priors to experiment termination. The plates were then centrifuged at 1500 rpm for 15 min and the supernatant was discarded, and MTT formazan crystals were dissolved in 150 μl of DMSO. The OD measured at 570 nm with reference wavelength of 620 nm.
The percentages of cell viability and growth inhibition were calculated using formulas: […]

[3] = male, mouse, plasma, IV 1 mg/Kg
[4] = male, mouse, plasma, PO 10 mg/Kg

COc1cc2c(c(OC)c1OC)-c1ccc(Nc3ccc(Cl)c(C(F)(F)F)c3)c(=O)cc1[C@@H](NC(C)=O)CC2 [Compound 1g, N-[(7S)-1,2,3-Trimethoxy-9-oxo-10-[3-(trifluoromethyl)-4-chloro-phenylamino]-5,6,7,9-tetrahydrobenzo[a]heptalen-7-yl]acetamide]
Tlast ([1]; IV 1 mg/Kg): 8.00 h | CL ([1]; IV 1 mg/Kg, 1 mg/kg): 6.19 mL/min/kg | bioavailability [1]: 64.4 % F | clearance ([1]; male, BALB/c, mouse, plasma, iv, 1 mg/kg, IV 1 mg/Kg): ~6 mL/min/kg | Vd ([1]; male, BALB/c, mouse, plasma, iv, 1 mg/kg, IV 1 mg/Kg, read-out: Vd): 1.49 L/kg | Vd ([1]; male, BALB/c, mouse, plasma, iv, 1 mg/kg, IV 1 mg/Kg, read-out: Vdss): 1.47 L/kg | AUC(0-inf) [1, 3]: 2690 ng·h/mL | AUC(0-t) [1, 3]: 2340 ng·h/mL | Cmax [1, 3]: 698 ng/mL | C0 ([1]; male, mouse, plasma, IV 1 mg/Kg, extrapolated, calculated manually using initial 3 time points): 819 ng/mL | half-life ([1]; male, mouse, plasma, IV 1 mg/Kg, read-out: t1/2, β (converted)): 2.78 h | bioavailability ([1]; male, mouse, plasma, read-out: absolute oral bioavailability): 64% | AUC(0-inf) [1, 4]: 17300 ng·h/mL | AUC(0-t) [1, 4]: 16900 ng·h/mL | Cmax [1, 4]: 3030 ng/mL | Tmax [1, 4]: 2 h | half-life ([1]; male, mouse, plasma, PO 10 mg/Kg, read-out: t1/2,β (converted)): 5.43 h | IC50 [2]: 30 nM

Source: US9868695B2 (priority 2014, dated 2018)
